Laboratory results: the supplement of paper PMC6045584
± gives the standard deviation of the averaged measurements.

Legend:
MK0752 = compound: O=C(O)CC[C@H]1CC[C@@](c2cc(F)ccc2F)(S(=O)(=O)c2ccc(Cl)cc2)CC1 [MK0752]; assay: surviving fraction relative to DMSO-only wells; higher = less growth inhibition; conditions: exposure time: 5 days
Procedure, shortened: (§1)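 After seeding at 250–500 cells per well in 384-well plates and a 24-hour wait, log-phase tumour cell lines were exposed without interruption for five days to inhibitors at 0.5, 1, 5, 10, 50, 100, 500 and 1000 nM. CellTiter-Glo luminescence was recorded after 10 minutes at room temperature. Viability is reported as surviving fraction, the luminescence normalised to the median of DMSO-only wells.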

ERLOTINIB = compound: C#Cc1cccc(Nc2ncnc3cc(OCCOC)c(OCCOC)cc23)c1 [ERLOTINIB]; assay: as above; conditions: exposure time: 5 days
Procedure, shortened: as §1

| Test System | surviving fraction (MK0752; 0.5 nM) | surviving fraction (MK0752; 1 nM) | surviving fraction (MK0752; 5 nM) | surviving fraction (MK0752; 10 nM) | surviving fraction (MK0752; 50 nM) | surviving fraction (MK0752; 100 nM) | surviving fraction (MK0752; 500 nM) | surviving fraction (MK0752; 1000 nM) | surviving fraction (ERLOTINIB; 0.5 nM) | surviving fraction (ERLOTINIB; 1 nM) | surviving fraction (ERLOTINIB; 5 nM) | surviving fraction (ERLOTINIB; 10 nM) | surviving fraction (ERLOTINIB; 50 nM) | surviving fraction (ERLOTINIB; 100 nM) | surviving fraction (ERLOTINIB; 500 nM) | surviving fraction (ERLOTINIB; 1000 nM) |
| --- | --- | --- | --- | --- | --- | --- | --- | --- | --- | --- | --- | --- | --- | --- | --- | --- |
| HCC1954 BREAST | 0.922 ± 0.069 | 0.747 ± 0.054 | 1.18 ± 0.13 | 1.15 ± 0.15 | 1 ± 0.05 | 0.904 ± 0.02 | 0.741 ± 0.05 | 0.808 ± 0.073 | 1.05 ± 0.059 | 1.14 ± 0.082 | 1.35 ± 0.075 | 1.35 ± 0.23 | 0.782 ± 0.23 | 0.708 ± 0.23 | 0.527 ± 0.066 | 0.493 ± 0.092 |
| MDAMB453 BREAST | 1.04 ± 0.078 | 1.06 ± 0.052 | 1.1 ± 0.023 | 1.09 ± 0.051 | 1.08 ± 0.049 | 1.14 ± 0.034 | 1.01 ± 0.029 | 1.07 ± 0.043 | 1.11 ± 0.065 | 1.05 ± 0.029 | 1.11 ± 0.057 | 1.088 ± 0.0092 | 1.09 ± 0.065 | 1.06 ± 0.022 | – | 1.01 ± 0.026 |
| 93VU HEADNECK | 1.19 ± 0.15 | 1.25 ± 0.054 | 1.14 ± 0.041 | 1.23 ± 0.086 | 1.16 ± 0.016 | 1.23 ± 0.088 | 1.13 ± 0.051 | 1.18 ± 0.1 | 1.1 ± 0.058 | 1.04 ± 0.095 | 1.1 ± 0.067 | 1.04 ± 0.12 | 1.06 ± 0.051 | 0.97 ± 0.15 | 0.514 ± 0.066 | 0.416 ± 0.034 |
| SUM159 BREAST | 1.16 ± 0.12 | 1.15 ± 0.098 | 1.13 ± 0.075 | 1.13 ± 0.085 | 1.06 ± 0.044 | 1.11 ± 0.022 | 1.13 ± 0.057 | 1.11 ± 0.035 | 1.11 ± 0.039 | 1.1 ± 0.033 | 1.09 ± 0.023 | 1.07 ± 0.024 | 1.07 ± 0.013 | 1.05 ± 0.015 | 1.07 ± 0.012 | 1.06 ± 0.016 |
